Source: ChEMBL document CHEMBL1201862, “PubChem BioAssay data set” (2004)
Values belong to the compound of their own block, whether it stands above or below them. The source made the active and inactive calls.

How the values were obtained:
[1] = molecular target: NADPH oxidase 1 (Homo sapiens, UniProt Q9Y5S8); format: functional, cell-based;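 further: Cell-based assay with luminescence read-out, IC50 derived from inhibitor dose-response curves; intracellular ROS from endogenous NOX1 in intact HT29 colon cancer cells; potency of inhibitors that lower the ROS luminescence signal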
[2] = molecular target: Inward rectifier potassium channel 2 (Mus musculus, UniProt P35561); assay: Manual electrophysiological patch clamp assay for SAR compounds that inhibit/block inward-rectifying potassium ion channel Kir2.1. [Related pubchem assays: 1843 (Summary assay for Kir2.1 inhibitor assays.), 1672 (Primary HTS of 305616 compounds where 2592 were identified as active.)]; format: functional
[3] = molecular target: T1, Tyrosine-protein phosphatase non-receptor type 7 (Homo sapiens, UniProt P35236); assay: HePTP tyrosine phosphatase activity blockers – biochemical, absorbance, leukemia target, primary screen (AID 521); format: functional
T1 sequence (P35236 whole entry): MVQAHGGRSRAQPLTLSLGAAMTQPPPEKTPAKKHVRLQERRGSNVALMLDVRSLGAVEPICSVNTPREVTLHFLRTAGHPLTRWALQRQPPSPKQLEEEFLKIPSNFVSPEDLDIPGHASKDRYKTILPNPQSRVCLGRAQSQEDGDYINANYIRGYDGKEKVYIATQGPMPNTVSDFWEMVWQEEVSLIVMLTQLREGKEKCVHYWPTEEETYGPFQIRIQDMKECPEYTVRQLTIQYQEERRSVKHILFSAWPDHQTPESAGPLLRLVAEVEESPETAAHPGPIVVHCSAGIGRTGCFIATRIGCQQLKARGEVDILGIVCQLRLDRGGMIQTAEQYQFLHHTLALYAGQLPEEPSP

[4] = molecular target: T2, Bcl-2-related protein A1 (Mus musculus, UniProt Q07440); assay: Bfl-1 binding inhibitors, SAR follow-up, biochemical, fluorescence polarization (AID 1070)
T2 sequence (Q07440 whole entry): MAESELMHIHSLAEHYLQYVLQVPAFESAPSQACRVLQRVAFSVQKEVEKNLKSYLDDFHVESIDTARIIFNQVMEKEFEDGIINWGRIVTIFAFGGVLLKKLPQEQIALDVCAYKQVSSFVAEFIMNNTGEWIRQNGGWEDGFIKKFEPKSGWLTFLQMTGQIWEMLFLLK

[5] = molecular target: Glyceraldehyde-3-phosphate dehydrogenase (Homo sapiens, UniProt P04406)
[6] = molecular target: T2, Bcl-2-related protein A1; assay: small-molecule antagonists of Bfl-1/BH3 interaction – biochemical, TR-FRET, mouse Bfl-1, confirmation (AID 621);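 further: TR-FRET binding of GST-Bfl-1 to FITC-labelled Bid peptide via terbium antibody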
[7] = molecular target: T3, Induced myeloid leukemia cell differentiation protein Mcl-1 (Homo sapiens, UniProt Q07820); assay: blockers of MCL1 binding to BIM peptide – biochemical, fluorescence polarization, BIM-BH3 peptide, 1536-well, dose response (AID 2217)
[8] = molecular target: T3, Induced myeloid leukemia cell differentiation protein Mcl-1; format: functional
[9] = molecular target: Bcl-2-like protein 1 (Homo sapiens, UniProt Q07817); assay: blockers of BCLXL peptide binding – biochemical, fluorescence polarization, 1536-well, selectivity assay for MCL1 inhibitor project, dose response (AID 2218)
[10] = molecular target: T4, Carboxy-terminal domain RNA polymerase II polypeptide A small phosphatase 1 (Homo sapiens, UniProt Q9GZU7); assay: CTDSP1 inhibitors, concentration-response, biochemical, absorbance readout, ultra-high-throughput screen actives (AID 540297); format: functional
T4 sequence (Q9GZU7 whole entry): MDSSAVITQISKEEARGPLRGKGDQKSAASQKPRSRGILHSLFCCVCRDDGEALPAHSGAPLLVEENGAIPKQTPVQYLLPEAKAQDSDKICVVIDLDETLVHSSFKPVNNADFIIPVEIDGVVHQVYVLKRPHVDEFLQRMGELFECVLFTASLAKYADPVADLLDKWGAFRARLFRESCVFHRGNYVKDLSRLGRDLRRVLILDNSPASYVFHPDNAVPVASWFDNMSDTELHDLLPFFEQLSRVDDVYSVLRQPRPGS

[11] = molecular target: Cytochrome P450 2C9 (Homo sapiens, UniProt P11712); details: Potency
[12] = molecular target: Cytochrome P450 2C19 (Homo sapiens, UniProt P33261); assay: qHTS Assay for Inhibitors and Substrates of Cytochrome P450 2C19. [Related pubchem assays: 410 ]; format: ADME; details: read-out: Potency
[13] = viability of uninfected HEp-2 cells – cell-based, HTS, cytotoxicity control for RSV inhibitor project, dose response (AID 2410); format: functional; details: human respiratory syncytial virus
[14] = Luminescence Cell-Based Dose Retest to Confirm Inhibitors of Cancer Stem Cells. [Related pubchem assays (depositor defined):AID2717, AID2721]; format: functional; details: Homo sapiens
[15] = molecular target: Aryl hydrocarbon receptor (Homo sapiens, UniProt P35869); assay: Luminescence-based cell-based high throughput dose response assay for activators of the Aryl Hydrocarbon Receptor (AHR). [Related pubchem assays: 2796 (Primary screen (AHR activators in singlicate)), 2845 (Confirmation screen (AHR activators in triplicate)), 434939 (Counterscreen (PXR activators in triplicate)), 2804 (Summary (AHR activators))]; format: ADME
[16] = tested on: Vero; assay: Vero cell viability after compound exposure – synthesized analogs, set II, cytotoxicity control for West Nile virus antiviral project, SAR follow-up (AID 2402); format: functional; details: Chlorocebus sabaeus

T3 sequence (Q07820 whole entry): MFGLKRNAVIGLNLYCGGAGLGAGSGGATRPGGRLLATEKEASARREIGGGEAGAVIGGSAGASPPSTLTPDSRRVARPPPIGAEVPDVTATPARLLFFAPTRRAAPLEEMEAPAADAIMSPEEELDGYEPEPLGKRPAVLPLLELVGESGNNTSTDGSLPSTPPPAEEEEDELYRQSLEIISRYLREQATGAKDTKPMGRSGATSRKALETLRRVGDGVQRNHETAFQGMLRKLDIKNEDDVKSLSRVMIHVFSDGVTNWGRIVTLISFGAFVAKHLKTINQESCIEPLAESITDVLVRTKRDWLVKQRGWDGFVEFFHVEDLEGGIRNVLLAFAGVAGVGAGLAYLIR
Chain of Inward rectifier potassium channel 2 (P35561 whole entry): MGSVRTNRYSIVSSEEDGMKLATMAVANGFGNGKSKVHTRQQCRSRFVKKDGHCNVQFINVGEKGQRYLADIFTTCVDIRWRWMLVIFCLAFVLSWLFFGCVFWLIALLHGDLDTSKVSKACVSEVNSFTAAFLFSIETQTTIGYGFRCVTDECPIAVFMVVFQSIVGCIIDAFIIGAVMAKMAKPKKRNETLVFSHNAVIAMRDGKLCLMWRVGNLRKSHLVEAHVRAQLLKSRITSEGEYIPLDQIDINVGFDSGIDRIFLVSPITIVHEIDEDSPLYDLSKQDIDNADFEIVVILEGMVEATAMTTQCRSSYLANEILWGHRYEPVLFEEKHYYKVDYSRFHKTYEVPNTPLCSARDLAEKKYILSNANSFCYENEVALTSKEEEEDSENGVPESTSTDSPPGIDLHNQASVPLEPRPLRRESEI
Chain of Bcl-2-like protein 1 (Q07817 whole entry, the tested form may be a part): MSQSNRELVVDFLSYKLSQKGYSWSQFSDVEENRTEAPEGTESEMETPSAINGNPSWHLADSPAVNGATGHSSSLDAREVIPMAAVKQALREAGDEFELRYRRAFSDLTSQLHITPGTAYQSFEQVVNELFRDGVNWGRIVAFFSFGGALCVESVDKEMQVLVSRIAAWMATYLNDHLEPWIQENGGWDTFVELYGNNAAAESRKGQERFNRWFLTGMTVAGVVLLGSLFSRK
Chain of Cytochrome P450 2C19 (P33261 whole entry): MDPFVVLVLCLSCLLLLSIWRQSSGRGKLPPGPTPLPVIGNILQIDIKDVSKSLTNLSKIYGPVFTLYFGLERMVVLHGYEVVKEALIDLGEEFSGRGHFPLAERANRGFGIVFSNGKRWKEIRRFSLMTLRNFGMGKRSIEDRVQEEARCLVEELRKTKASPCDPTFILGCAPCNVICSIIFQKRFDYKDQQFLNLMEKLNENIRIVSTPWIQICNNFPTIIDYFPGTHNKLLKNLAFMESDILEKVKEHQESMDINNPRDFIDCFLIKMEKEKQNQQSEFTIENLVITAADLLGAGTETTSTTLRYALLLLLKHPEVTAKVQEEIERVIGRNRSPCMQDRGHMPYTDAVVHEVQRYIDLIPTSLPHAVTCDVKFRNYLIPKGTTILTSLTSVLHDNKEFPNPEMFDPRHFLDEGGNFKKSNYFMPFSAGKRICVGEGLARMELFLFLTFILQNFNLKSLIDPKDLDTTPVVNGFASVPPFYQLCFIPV
Chain of NADPH oxidase 1 (Q9Y5S8 whole entry): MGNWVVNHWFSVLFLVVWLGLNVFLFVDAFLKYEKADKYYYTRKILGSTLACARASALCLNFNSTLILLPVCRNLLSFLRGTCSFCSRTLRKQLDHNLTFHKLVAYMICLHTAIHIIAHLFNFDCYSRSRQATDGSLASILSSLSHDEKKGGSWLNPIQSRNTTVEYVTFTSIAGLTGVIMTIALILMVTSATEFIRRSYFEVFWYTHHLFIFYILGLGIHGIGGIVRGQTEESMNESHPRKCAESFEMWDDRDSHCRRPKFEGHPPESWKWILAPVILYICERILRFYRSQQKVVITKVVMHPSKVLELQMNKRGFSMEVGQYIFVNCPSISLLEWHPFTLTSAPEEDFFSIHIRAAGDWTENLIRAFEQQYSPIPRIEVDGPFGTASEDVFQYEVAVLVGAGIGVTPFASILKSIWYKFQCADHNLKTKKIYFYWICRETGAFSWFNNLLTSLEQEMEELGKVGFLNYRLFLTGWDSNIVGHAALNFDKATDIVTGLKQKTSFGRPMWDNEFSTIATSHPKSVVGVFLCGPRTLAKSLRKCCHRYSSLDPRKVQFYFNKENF
Chain of Aryl hydrocarbon receptor (P35869 whole entry): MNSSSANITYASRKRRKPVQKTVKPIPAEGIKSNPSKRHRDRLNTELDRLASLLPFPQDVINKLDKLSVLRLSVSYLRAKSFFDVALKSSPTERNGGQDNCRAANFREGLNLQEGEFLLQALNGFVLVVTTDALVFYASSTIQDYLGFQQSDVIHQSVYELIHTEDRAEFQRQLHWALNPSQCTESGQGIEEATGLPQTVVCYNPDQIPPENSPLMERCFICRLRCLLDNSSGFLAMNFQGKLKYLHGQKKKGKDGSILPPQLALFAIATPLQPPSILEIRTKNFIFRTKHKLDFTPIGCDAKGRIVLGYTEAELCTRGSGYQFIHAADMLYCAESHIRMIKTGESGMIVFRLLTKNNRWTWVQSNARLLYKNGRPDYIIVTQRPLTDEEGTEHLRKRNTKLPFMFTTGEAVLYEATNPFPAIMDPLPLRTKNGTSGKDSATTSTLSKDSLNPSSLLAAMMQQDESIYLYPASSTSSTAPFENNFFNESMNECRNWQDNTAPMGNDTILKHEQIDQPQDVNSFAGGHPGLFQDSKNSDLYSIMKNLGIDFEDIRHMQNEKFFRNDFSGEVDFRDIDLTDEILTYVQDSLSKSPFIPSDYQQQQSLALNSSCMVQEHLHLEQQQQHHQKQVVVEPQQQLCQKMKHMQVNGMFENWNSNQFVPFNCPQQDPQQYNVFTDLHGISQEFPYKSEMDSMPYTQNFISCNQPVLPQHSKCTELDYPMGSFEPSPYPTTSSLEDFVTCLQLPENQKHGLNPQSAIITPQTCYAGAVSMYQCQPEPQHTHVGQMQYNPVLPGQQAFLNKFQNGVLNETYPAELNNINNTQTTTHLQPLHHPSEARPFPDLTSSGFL
Chain of Glyceraldehyde-3-phosphate dehydrogenase (P04406 whole entry): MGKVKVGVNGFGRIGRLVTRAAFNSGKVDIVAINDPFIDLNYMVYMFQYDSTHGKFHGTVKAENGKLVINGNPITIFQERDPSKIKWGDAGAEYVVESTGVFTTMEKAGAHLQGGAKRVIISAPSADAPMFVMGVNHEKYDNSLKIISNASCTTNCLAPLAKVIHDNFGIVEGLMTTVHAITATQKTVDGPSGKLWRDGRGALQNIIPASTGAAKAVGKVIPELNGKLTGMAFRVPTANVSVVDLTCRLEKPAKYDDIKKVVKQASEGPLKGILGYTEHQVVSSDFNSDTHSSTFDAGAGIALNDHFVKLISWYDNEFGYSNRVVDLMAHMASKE
Chain of Cytochrome P450 2C9 (P11712 whole entry): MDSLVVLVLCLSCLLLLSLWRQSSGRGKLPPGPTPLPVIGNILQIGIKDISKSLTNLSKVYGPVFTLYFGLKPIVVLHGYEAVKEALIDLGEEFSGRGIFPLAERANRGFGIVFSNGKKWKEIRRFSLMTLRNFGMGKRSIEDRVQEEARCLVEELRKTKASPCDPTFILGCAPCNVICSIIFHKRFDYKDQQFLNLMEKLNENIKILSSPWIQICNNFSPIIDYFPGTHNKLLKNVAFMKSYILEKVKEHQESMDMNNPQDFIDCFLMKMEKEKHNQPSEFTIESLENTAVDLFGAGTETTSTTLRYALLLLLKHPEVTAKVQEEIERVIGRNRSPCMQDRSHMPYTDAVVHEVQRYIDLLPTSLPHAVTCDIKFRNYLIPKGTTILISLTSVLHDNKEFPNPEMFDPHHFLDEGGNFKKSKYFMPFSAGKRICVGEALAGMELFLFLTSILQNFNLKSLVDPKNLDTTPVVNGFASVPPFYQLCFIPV

Structure (SMILES): COc1ccc(CNCc2ccccc2Cl)cc1
IC50 [2]: 13.3 µM (active)

Structure (SMILES): Brc1ccc(-c2nnc3sc(CNC4CCCC4)cn23)cc1
IC50 [3]: > 100 µM (not active)

Structure (SMILES): CN1CCN(C2=CC(=O)N(c3ccc(Cl)cc3)C2=O)CC1
IC50 [4]: > 100 µM (not active) | IC50 [5]: > 100 µM (not active) | IC50 [6]: > 100 µM (not active)

Structure (SMILES): COc1cc2c(cc1NC(=O)Nc1ccc(C)cc1)oc1ccccc12
CC50 [13]: 26.4 µM (active) | AC50 [14]: 1.88 µM (active) | EC50 [15]: 1.47 µM (active)

Structure (SMILES): O=c1c2cc([N+](=O)[O-])ccc2nc2n1CCC2
CC50 [16]: > 100 µM (active)

The remaining lines, values ahead:

IC50 [1]: > 17 µM (not active)
Structure (SMILES): COc1ccc(NC(=O)Nc2ccc3c(c2)CCN3C(C)=O)cc1

IC50 [7]: 20.9 µM (not active) | IC50 [8]: > 54 µM (active) | IC50 [9]: > 109 µM (not active) | IC50 [10]: 3.29 µM (active)
Structure (SMILES): O=C(/C=C/c1ccc(Cl)c([N+](=O)[O-])c1)Nc1ccc(N2CCCC2)cc1

AC50 [11]: 7.94 µM (inconclusive) | AC50 [12]: 31.6 µM (inconclusive)
Structure (SMILES): CC1=C(\C=C/C(C)=C/C=C\C(C)=C\C(=O)Nc2ccc(O)cc2)C(C)(C)CCC1
